Measurements from PubChem BioAssay AID651806 (Broad Institute, 2012).
Calls of active or inactive are those of the source.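 Rule for the calls: active = AC50 no higher than twice the top valid tested dose, with signal falling as dose rises; inconclusive = flat fit with partial inhibition, or a poor-quality fit; inactive = the rest, plus effects in the rising direction.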

Biological target: Kelch-like ECH-associated protein 1 (Homo sapiens) (UniProt Q14145)
Test: Keap1 Kelch-Nrf2 peptide binding inhibitors, dose response, biochemical, fluorescence polarization, dry powder, set 3 (AID 651806)
Conditions: Keap1 Kelch/FITC-Nrf2 peptide fluorescence polarization

Chain of Kelch-like ECH-associated protein 1 (Homo sapiens) (Q14145 whole entry, looked up): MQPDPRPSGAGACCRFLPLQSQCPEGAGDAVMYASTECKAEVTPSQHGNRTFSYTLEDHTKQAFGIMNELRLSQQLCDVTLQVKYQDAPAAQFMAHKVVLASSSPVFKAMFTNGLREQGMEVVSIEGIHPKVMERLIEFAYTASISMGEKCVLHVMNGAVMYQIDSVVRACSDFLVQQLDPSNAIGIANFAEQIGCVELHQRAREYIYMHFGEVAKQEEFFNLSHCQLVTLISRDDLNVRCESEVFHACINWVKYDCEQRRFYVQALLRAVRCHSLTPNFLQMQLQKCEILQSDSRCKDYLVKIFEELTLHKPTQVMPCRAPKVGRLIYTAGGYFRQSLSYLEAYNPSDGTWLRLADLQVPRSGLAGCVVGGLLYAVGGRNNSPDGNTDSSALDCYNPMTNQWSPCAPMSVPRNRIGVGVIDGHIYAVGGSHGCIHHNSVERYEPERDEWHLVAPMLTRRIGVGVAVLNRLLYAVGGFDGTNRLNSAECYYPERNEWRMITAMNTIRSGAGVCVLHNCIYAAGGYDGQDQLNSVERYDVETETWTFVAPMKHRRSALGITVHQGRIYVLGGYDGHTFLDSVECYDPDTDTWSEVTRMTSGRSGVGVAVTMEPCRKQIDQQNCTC

Structure (SMILES) | activity change, negative = inhibition (at 50 µM (top of the series)) | other results
O=C(O)[C@H]1CCCC[C@H]1C(=O)N1CCc2ccccc2[C@H]1CNc1nc(Cl)nc2ccccc12 | inactive | –
COC(=O)[C@@H]1CCCC[C@@H]1C(=O)N1CCc2ccccc2[C@H]1CN1C(=O)c2ccccc2C1=O | inactive | –
Cc1ccccc1S(=O)(=O)Nc1cc(C(C(=O)OC(C)C)C(=O)C(F)(F)F)c(O)c2ccccc12 (stereo not given) | – | AC50: > 100 µM (inactive)
O=C1c2ccccc2C(=O)N1C[C@@H]1c2ccccc2CCN1C(=O)OCc1ccccc1 | inactive | –
O=C(O)C1CCCCC1C(=O)N1CCc2ccccc2C1c1ccccc1 (stereo not given) | inactive | –
O=C(O)[C@@H]1CCCN1C(=O)N1CCc2ccccc2[C@H]1CN1C(=O)c2ccccc2C1=O | inactive | –
COC(=O)C(C(=O)OC)c1cc(NS(=O)(=O)c2c(C)cc(C)cc2C)c2ccccc2c1O | inactive | –
O=C(O)CC(=O)N1CCc2ccccc2C1CN1C(=O)c2ccccc2C1=O (stereo not given) | inactive | –
Cc1cc(C)c(S(=O)(=O)Nc2nc(N(C)C)nc3ccccc23)c(C)c1 | inactive | –
O=C(O)C1CCCCC1C(=O)N1CCc2ccccc2C1CN1C(=O)[C@H]2CCCC[C@H]2C1=O (stereo not given in full) | inactive | –
O=C(O)C1CCCCC1C(=O)N1CCCCC1CN1C(=O)c2ccccc2C1=O (stereo not given) | inactive | –
Cc1cc(C)c(S(=O)(=O)Nc2ncnc3ccccc23)c(C)c1 | inactive | –
COc1ccc(CCN=C2C=C(NS(=O)(=O)c3c(C)cc(C)cc3C)c3ccccc3C2=O)cc1 | inactive | –
O=C(O)c1ccccc1C(=O)NC[C@@H]1c2ccccc2CCN1C(=O)[C@@H]1CCCC[C@@H]1C(=O)O | inactive | –
Cc1ccc(S(=O)(=O)NC2=CC(=N[C@@H](C)C(=O)OC(C)(C)C)C(=O)c3ccccc32)c(C)c1 | inactive | –
O=C(NCCCN1CCOCC1)c1ccccc1C(=O)NC[C@@H]1c2ccccc2CCN1C(=O)C1CCCCC1C(=O)O (stereo not given in full) | inactive | –
Cc1cc(C)c(S(=O)(=O)Nc2nc(C(C(=O)OC(C)C)C(=O)C(F)(F)F)nc3ccccc23)c(C)c1 (stereo not given) | inactive | –
CCOC(=O)C(C(=O)OCC)c1nc(NS(=O)(=O)c2c(C)cc(C)cc2C)c2ccccc2n1 | inactive | –
O=C(NC[C@@H]1c2ccccc2CCN1C(=O)[C@@H]1CCCC[C@@H]1C(=O)O)c1ccc(CN2CCOCC2)cc1 | inactive | –
O=C1c2ccccc2C(=O)N1CC1=NCCc2ccccc21 | inactive | –
O=C(O)[C@H]1CCCC[C@H]1C(=O)N1CCc2ccccc2[C@H]1CNS(=O)(=O)c1ccccc1 | inactive | –
CCOC(=O)C(C(=O)OCC)c1cc(CN2C(=O)c3ccccc3C2=O)c2ccccc2n1 | inactive | –
O=C1c2ccccc2C(=O)N1C[C@@H]1c2ccccc2CCN1C(=O)C1CCCCC1 | inactive | –
CCOC(=O)Cc1nc(NS(=O)(=O)c2c(C)cc(C)cc2C)c2ccccc2n1 | inactive | –
O=C(O)C1CCCCC1C(=O)NCC1c2ccccc2CCN1C(=O)Cc1ccccc1 (stereo not given) | inactive | –

Structure (SMILES) | activity change, negative = inhibition (at 50 µM (top of the series)) | other results
CCOC(=O)C(C(=O)OCC)c1cc(CNS(=O)(=O)c2ccc(C)cc2C)c2ccccc2n1 | inactive | –
O=S(=O)(Nc1nc(NCC2CCCCC2)nc2ccccc12)c1ccccc1 | inactive | –
CC(C)CNc1nc(NS(=O)(=O)c2ccccc2)c2ccccc2n1 | inactive | –
Cc1ccc(S(=O)(=O)NNc2nc(C(C(=O)OC(C)C)C(=O)C(F)(F)F)nc3ccccc23)cc1 (stereo not given) | inactive | –
O=C(Oc1cc(CN2C(=O)c3ccccc3C2=O)c2ccccc2[n+]1[O-])c1cccc(Cl)c1 | inactive | –
O=C1c2ccccc2C(=O)N1CC1c2ccccc2CCN1C(=O)Cc1ccccc1 (stereo not given) | – | activity change, negative = inhibition (at 12 µM (top of the series)): inactive
O=C(Cc1ccccc1)NC[C@@H]1c2ccccc2CCN1C(=O)[C@@H]1CCCC[C@@H]1C(=O)O | inactive | –
O=C(O)C1CCCCC1C(=O)N1CCc2ccccc2[C@H]1C(=O)NCCc1ccccc1 (stereo not given in full) | inactive | –
O=C(O)[C@H]1CCCC[C@H]1C(=O)N1CCc2ccccc2C1CCN1C(=O)c2ccccc2C1=O (stereo not given in full) | inactive | –
COC(=O)[C@@H]1CCCC[C@@H]1C(=O)N1CCc2ccccc2[C@@H]1CN1C(=O)c2ccccc2C1=O | inactive | –
C[C@H](NC(=O)C1CCCC[C@H]1C(=O)O)c1ccccc1 (mixture of isomers) | inactive | –
O=C(O)CCC(=O)N1CCc2ccccc2C1CN1C(=O)c2ccccc2C1=O (stereo not given) | inactive | –
O=C(O)C1CCCCC1C(=O)Nc1ccccc1CN1C(=O)c2ccccc2C1=O (stereo not given) | inactive | –
CC(=O)Nc1cc(NS(=O)(=O)c2c(C)cc(C)cc2C)c2ccccc2c1O | – | AC50: > 100 µM (inactive)
O=C(NC[C@@H]1c2ccccc2CCN1C(=O)[C@@H]1CCCC[C@@H]1C(=O)O)OCC1c2ccccc2-c2ccccc21 | inactive | –
COC(=O)C1CCCCC1C(=O)N1CCc2ccccc2C1CN1C(=O)c2ccccc2C1=O (stereo not given) | inactive | –
O=C(O)[C@H]1CCCC[C@H]1C(=O)N1CCC2=C(CCCC2)C1CN1C(=O)c2ccccc2C1=O (stereo not given in full) | inactive | AC50: > 100 µM (inactive)
NC(=O)c1ccccc1C(=O)NC[C@@H]1c2ccccc2CCN1C(=O)[C@@H]1CCCC[C@@H]1C(=O)O | inactive | –
Cc1ccc(S(=O)(=O)NC[C@@H]2c3ccccc3CCN2C(=O)[C@@H]2CCCC[C@@H]2C(=O)O)c(C)c1 | inactive | –
O=C(O)[C@H]1CCCC[C@H]1C(=O)NC(CN1C(=O)c2ccccc2C1=O)c1ccccc1 (stereo not given in full) | inactive | –
O=C(NC[C@@H]1c2ccccc2CCN1C(=O)[C@@H]1CCCC[C@@H]1C(=O)O)c1ccccc1CO | inactive | –
O=C(NC[C@@H]1c2ccccc2CCN1C(=O)[C@@H]1CCCC[C@@H]1C(=O)O)c1ccccc1 | inactive | –
COC(=O)CNc1nc(NS(=O)(=O)c2c(C)cc(C)cc2C)c2ccccc2n1 | inactive | –
O=C(O)c1ccccc1C(=O)N1CCc2ccccc2C1CN1C(=O)c2ccccc2C1=O (stereo not given) | inactive | –
C[C@@H](NC(=O)C1CCCC[C@H]1C(=O)O)c1ccccc1 (mixture of isomers) | inactive | –

Structure (SMILES) | activity change, negative = inhibition (at 50 µM (top of the series)) | other results
Cc1ccc(S(=O)(=O)Nc2cc(C(C(=O)OC(C)C)C(=O)C(F)(F)F)c(O)c3ccccc23)cc1 (stereo not given) | – | AC50: > 100 µM (inactive)
O=C(NCCO)c1ccccc1C(=O)NC[C@@H]1c2ccccc2CCN1C(=O)C1CCCCC1C(=O)O (stereo not given in full) | inactive | –
NC(=O)[C@H]1CCCC[C@H]1C(=O)N1CCc2ccccc2[C@H]1CN1C(=O)c2ccccc2C1=O | inactive | –
Cc1cc(C)c(S(=O)(=O)Nc2cc(C(C(=O)OCc3ccccc3)C(=O)OCc3ccccc3)c(O)c3ccccc23)c(C)c1 | inactive | –
O=C(NCCc1ccccc1)c1ccccc1C(=O)NC[C@@H]1c2ccccc2CCN1C(=O)C1CCCCC1C(=O)O (stereo not given in full) | inactive | –
Cc1cc(C)c(S(=O)(=O)Nc2cc(C(C(=O)OC(C)C)C(=O)C(F)(F)F)c(O)c3ccccc23)c(C)c1 (stereo not given) | – | AC50: 14.7 µM
O=C1c2ccccc2C(=O)N1C[C@H]1NCCc2ccccc21 | inactive | –
Cc1cc(C)c(S(=O)(=O)Nc2nc(NCCO)nc3ccccc23)c(C)c1 | inactive | –
O=C(NC[C@@H]1c2ccccc2CCN1C(=O)[C@@H]1CCCC[C@@H]1C(=O)O)c1ccc(CCl)cc1 | inactive | –
COC(=O)[C@H]1CCCC[C@H]1C(=O)N1CCc2ccccc2[C@H]1CN1C(=O)c2ccccc2C1=O | inactive | –
O=C(O)[C@H]1CCCC[C@H]1C(=O)N1CCc2ccccc2C1 (racemic) | inactive | –
Cc1ccc(S(=O)(=O)NNc2nc(NCC(N)=O)nc3ccccc23)cc1 | inactive | –
O=C(O)C1CCCCC1C(=O)N1CCc2ccccc2C1CN1C(=O)Cc2ccccc2C1=O (stereo not given) | – | AC50: > 100 µM (inactive)
O=C(O)C1CCCCC1C(=O)N1CCc2ccccc2C1CN1C(=O)c2ccccc2S1(=O)=O (stereo not given) | – | AC50: > 100 µM (inactive)
O=C(O)/C=C\C(=O)N1CCc2ccccc2C1CN1C(=O)c2ccccc2C1=O (stereo not given) | inactive | –
Cc1ccc(S(=O)(=O)NNc2nc(N3CC(O)CC3C(=O)O)nc3ccccc23)cc1 (stereo not given) | inactive | –
O=C(O)CCCC(=O)N1CCc2ccccc2C1CN1C(=O)c2ccccc2C1=O (stereo not given) | inactive | –
Cc1ccc(S(=O)(=O)NC(=O)[C@@H]2c3ccccc3CCN2C(=O)[C@@H]2CCCC[C@@H]2C(=O)O)cc1 | inactive | AC50: > 100 µM (inactive)
COc1ccccc1CCNC(=O)[C@@H]1c2ccccc2CCN1C(=O)C1CCCCC1C(=O)O (stereo not given in full) | inactive | –
O=C(O)[C@H]1C2C=CC(C2)[C@H]1C(=O)N1CCc2ccccc2C1CN1C(=O)c2ccccc2C1=O (stereo not given in full) | inactive | –
C=CC(=O)NC[C@@H]1c2ccccc2CCN1C(=O)[C@@H]1CCCC[C@@H]1C(=O)O | inactive | –
CC(C)OC(=O)C(C(=O)C(F)(F)F)c1cc(NS(=O)(=O)c2ccccc2)c2ccccc2c1O (stereo not given) | – | AC50: > 100 µM (inactive)
O=C(O)C1CCCCC1C(=O)N1CCc2ccccc2[C@H]1C(=O)NC12CC3CC(CC(C3)C1)C2 (stereo not given in full) | inactive | –
